# ChEMBL document CHEMBL4304785, “Recent advances of analogues of curcumin for treatment of cancer” (Eur J Med Chem, 2019)
# What was measured:
# ASPC1 = assay: Antitumor activity against human Aspc-1 cells xenografted in athymic nude mouse assessed as reduction in tumor volume at 5 mg/kg after 35 days relative to control; format: functional; settings: ASPC1, 840 h
# DU-145 = assay: Cell cycle arrest in human DU145 cells by propidium iodide staining-based flow cytometric method; format: functional
# 3LL cell line = assay: Induction of apoptosis in mouse 3LL cells relative to control; format: functional, cell-based
# HT-1080 [1] = assay: Antioxidant activity in human HT1080 cells at 100 umol/L by measuring TBARS level by spectrophotometric method relative to control; format: functional
# A549 = assay: Cell cycle arrest in human A549 cells by propidium iodide staining-based flow cytometric method; format: functional
# HepG2 = assay: Induction of apoptosis in human HepG2 cells relative to control; format: functional, cell-based
# [2] = Induction of apoptosis in human SNUC5 cells relative to control; format: functional, cell-based
# U-937 = assay: Induction of apoptosis in human U937 cells relative to control; format: functional, cell-based
# KB = assay: Cell cycle arrest in human KB cells by propidium iodide staining-based flow cytometric method; format: functional
# HL-60 = assay: Induction of apoptosis in human HL60 cells relative to control; format: functional, cell-based
# MCF7 [3] = assay: Cell cycle arrest in human MCF7 cells by propidium iodide staining-based flow cytometric method; format: functional
# K562 = assay: Induction of apoptosis in human K562; format: functional, cell-based
# Tubulin = assay: Inhibition of tubulin polymerization (unknown origin); format: protein-complex assay, Homo sapiens
# MDA-MB-231 = assay: Increase in MMP3 level in human MDA-MB-231 cells after 24 hrs by ELISA; format: functional, cell-based; settings: MDA-MB-231, 24 h
# SK-OV-3 = assay: Cell cycle arrest in human SKOV3 cells assessed as accumulation at G1 phase at 15 umol/L after 24 hrs by propidium iodide staining-based assay (reference value: 58.1%); format: functional
# HT-1080 [4] = assay: Decrease in UPA expression in human HT1080 cells; format: functional, cell-based
# [5] = Inhibition of cell invasion in human […] cells at 4 nmol/L after 24 hrs by crystal violet staining based transwell assay relative to control; format: functional
# NCI-H460 = assay: Cytotoxicity against human H460 cells after 48 hrs by MTT assay; format: functional, cell-based; settings: NCI-H460, 48 h
# HT-144 [6] = assay: Cytotoxicity against human HT144 cells after 48 hrs by MTT assay; format: functional, cell-based; settings: HT-144, 48 h
# MIA PaCa-2 = assay: Cytotoxicity against human MIAPaCa2 cells after 48 hrs by MTT assay; format: functional, cell-based; settings: MIA PaCa-2, 48 h
# HT-144 [7] = assay: Cytotoxicity against human HT144 cells after 24 hrs by MTT assay; format: functional, cell-based; settings: HT-144, 24 h
# MCF7R [8] = assay: Cytotoxicity against human MCF7/R cells at 5 umol/L after 72 hrs by MTS assay relative to control; format: functional
# [9] = Cytotoxicity against human WRO cells after 72 hrs in presence of curcumin by MTS assay relative to control; format: functional
# [10] = Cytotoxicity against human WRO cells at 5 umol/L after 72 hrs by MTS assay relative to control; format: functional
# [11] = Cytotoxicity against human WRO cells at 10 uM after 72 hrs by MTS assay relative to control; format: functional
# HT-1080 [12] = assay: Induction of DNA damage in human HT1080 cells assessed as formation of DNA breaks at 50 ug/ml by comet assay relative to control; format: functional
# MCF7 [13] = assay: Anti-invasive activity against human MCF7 cells at 100 umol/L after 12 hrs by giemsa staining based light microscopic analysis relative to control; format: functional
# [14] = Cytotoxicity against human SW116 cells after 4 hrs by MTT assay; format: functional, cell-based; settings: SW116, 4 h
# SW480 = assay: Cytotoxicity against human SW480 cells after 4 hrs by MTT assay; format: functional, cell-based; settings: SW480, 4 h
# HT-29 = assay: Cytotoxicity against human HT-29 cells after 4 hrs by MTT assay; format: functional, cell-based; settings: HT-29, 4 h
# WiDr = assay: Cytotoxicity against human WiDr cells after 4 hrs by MTT assay; format: functional, cell-based
# KM12 = assay: Cytotoxicity against human KM12 cells after 4 hrs by MTT assay; format: functional, cell-based; settings: KM12, 4 h
# Colon 26 = assay: Cytotoxicity against mouse Colon 26 cells after 4 hrs by MTT assay; format: functional, cell-based; settings: Colon 26, 4 h, read-out: IC50
# MCF7R [15] = assay: Cytotoxicity against human MCF7/R cells after 72 hrs in presence of curcumin by MTS assay relative to control; format: functional
# MCF7R [16] = assay: Cytotoxicity against human MCF7/R cells at 10 uM after 72 hrs by MTS assay relative to control; format: functional
structure (smiles),measurement,setting,value
COc1cc(CNC(=O)CCCC/C=C/C(C)C)ccc1O [CAPSAICIN],inhibition in vivo at 5 mg/kg,ASPC1,73%
C/C=C/c1ccc(O)c(OC)c1,IC50,DU-145,33.2 µM
same,IC50,3LL cell line,89.6 µM
same,Activity,HT-1080 [1],70%
same,IC50,A549,33.5 µM
same,IC50,HepG2,119 µM
same,IC50,[2],129 µM
same,IC50,U-937,39.4 µM
same,IC50,KB,38.6 µM
same,IC50,HL-60,23.7 µM
same,IC50,MCF7 [3],40.7 µM
O=C(/C=C/c1ccccc1)c1ccccc1 [CHALCONE],IC50,K562,4.3 µM
same,IC50,Tubulin,620 µM
O=C(/C=C/c1ccc(O)cc1)CC(=O)/C=C/c1ccc(O)cc1 [BISDEMETHOXYCURCUMIN],IC50,MDA-MB-231,11 µM
same,Activity,SK-OV-3,79.7%
same,IC50,HT-1080 [4],7 µM
O=C(O)/C=C/c1ccccc1 [CINNAMIC ACID],inhibition at 0.004 µM,[5],60%
same,IC50,NCI-H460,2.1 µM
same,IC50,HT-144 [6],1.07 µM
same,IC50,MIA PaCa-2,1.33 µM
same,IC50,HT-144 [7],2.4 µM
COc1cc(/C=C/c2cc(/C=C/c3ccc(O)c(OC)c3)[nH]n2)ccc1O [CURCUMIN PYRAZOLE],inhibition at 5 µM,MCF7R [8],52.8%
same,inhibition (INH),[9],41%
same,inhibition at 5 µM,[10],48.9%
same,inhibition at 10 µM,[11],48.2%
O=C(O)/C=C/c1ccc(O)c(O)c1 [CAFFEIC ACID],Activity,HT-1080 [12],85%
O=C(CC(=O)c1ccccc1)c1ccccc1 [DIBENZOYLMETHANE],Activity,MCF7 [13],84%
COc1cc(/C=C/C(=O)C(Cc2ccc(O)c(OC)c2)C(=O)/C=C/c2ccc(O)c(OC)c2)ccc1O,IC50,[14],7.08 µM
same,IC50,SW480,4.78 µM
same,IC50,HT-29,5.42 µM
same,IC50,WiDr,7.32 µM
same,IC50,KM12,3.9 µM
same,IC50,Colon 26,8.91 µM
COc1cc(/C=C/c2cc(/C=C/c3ccc(O)c(OC)c3)on2)ccc1O,inhibition (INH),MCF7R [15],57.6%
same,inhibition at 10 µM,MCF7R [16],57.8%
